Assay results from EP4458358A1, “PYRIDAZINE COMPOUNDS FOR ANTIFIBROTIC THERAPY” (Tietze Chemical Consulting UG, priority 2023, dated 2024).

Columns and labels:
Assay type in all cases: cell-based
[1] = tested on: GM637; test: ELISA of secreted pro-collagen I alpha 1 (Type I Collagen) from human dermal fibroblasts GM637
Description: (§1) Compounds reconstitution and stock solution: Prior to treatment, DMSO was diluted in PMS until 0,1% DMSO was made. Each compound was solved in 0,1% DMSO (3: 2,5 mg/mL, 1: 2.5 mg/mL, 10: 1 mg/mL, 5: 1mg/mL, 7: 0,6 mg/mL, 16: 1 mg/mL 17: 1 mg/mL, 44: 0,6 mg/mL, 36: 1mg/mL.
(§2) Next the different stock solution with 150 µg and 250 µg of each compound per 1 ml culture solution was made by adding the 0,1% DMSO compound solution in the right amount to culture solution (DMEM with 10% FCS and 1% penicillin-streptomycin).
(§3) Three different cell lines were used for the experiments. GM637 is an immortalized cell line originated from human skin fibroblasts, bought in 2001, UKE1 and […] are cell lines originated from human dermal fibroblasts (dog ear) nurtured from patients, between 60 and 80 years old being completely anonymized at the clinic for dermatology, Rostock.
(§4) The cells lines were thawed and were cultured in Dulbeco's modified Eagel's medium (DMEM, Gibcon, USA) supplemented with 10% fetal bovine serum (FBS, Gibco, Germany) and 1% penicillin-streptomycin (PS, Gibco, USA) at 37 °C in a humidified atmosphere with 5% CO2 until a sufficient number of cells were culture in T75 culture bottles. After reaching a confluence of 80% to 90%, the cells were separated using trypsin and counted. Next 100.000 cells were planted in each well of a 6 well plate in replicates, washed and the DMEM solution with 150 µg and 250 µg/ml substance/DMEM and DMEM with no substance as control was added.
(§5) After 48h and after 72h 100 µl supernatant of each well was taken, labelled and frozen at -20° degree Celsius. Prior to perform ELISA the medium was depending on the cell line diluted 1:50 or 1:100 with PBS, otherwise the concentration of collagen fibers was too high to be measured.
(§6) The media containing the secretion of the different human dermal fibroblasts GM637, UKE1, and HRO159N were collected after 48h and 72h treatment. Secretion of pro-collagen 1 was assessed with human pro-collagen I alpha 1 DuoSet ELISA (R&D systems, USA) To prepare the Elisa plate, Human pro-Collagen I a capture antibody was diluted in ELISA plate-coating buffer at 4µg/mL working concentration. 100 µl of diluted Capture antibody was added to 96-well microplates and incubated over night at room temperature. After three times washing with Wash Buffer, microplates were blocked by adding 300 µl of Reagent Diluent for 1 hour at room temperature. To proceed the ELISA Human pro-collagen I α1 Standards were diluted in Reagent Diluent (range between 31,3 pg/mL - 2000 pg/mL) and 100 µl of standards or conditioned mediums were added to designated wells. Microplates were incubated at room temperature for 2 hours. Human Pro-collagen I α1 Detection Antibody was prepared in Reagent Diluent at […] working concentration and 100 µl of diluted Detection Antibody was applied for 2 hours at room temperature after extensive washing. Then, working solution of Streptavidin-HRP with Reagent Diluent was prepared by diluting 1:40 and added into each well. After 20 minutes at room temperature incubation, microplates were washed and applied with 100 µl of Substrate Solution for 20 minutes followed by Stop Solution after washing. Finally, signals were measured at 450 nm absorbance by PHomo Microplate Reader (Autobio, China) The amount of pro-collagen 1 was quantified by extrapolating the signal into a linear range of a pro-collagen 1 standard curve. Screening compounds were typically tested at concentration of 150 and 250 µg/mL. The dose response data for each compound and the different cell lines were obtained by nonlinear regression analysis using Prism 9 software (GraphPad, La Jolla, USA).

[2] = tested on: UKE1; test: ELISA of secreted pro-collagen I alpha 1 (Type I Collagen) from human dermal fibroblasts UKE1
Description: as §1, §2, §3, §4, §5, §6

[3] = tested on: HRO159N; test: ELISA of secreted pro-collagen I alpha 1 (Type I Collagen) from human dermal fibroblasts HRO159N; details: 250 µg
Description: as §1, §2, §3, §4, §5, §6

[4] = tested on: MRCVI; test: ELISA of secreted pro-collagen I alpha 1 (Type I Collagen) from human lung fibroblast MRCVI
Description: as §1, §2
As cell line MRCV1 was used, which is an immortalized cell line originated from human lung fibroblast, bought in 2001.
as §4, with “cell line was” for “cells lines were”, “and” for “and were”
as §5
The medium containing the secretion of the human lung fibroblast MRCVI was collected after 48h and 72h treatment. Secretion of pro-collagen 1 was assessed with human pro-collagen I alpha 1 DuoSet ELISA (R&D systems, USA) To prepare the Elisa plate, Human pro-Collagen I a capture antibody was diluted in ELISA plate-coating buffer at 4µg/mL working concentration. 100 µl of diluted Capture antibody was added to 96-well microplates and incubated over night at room temperature. After three times washing with Wash Buffer, microplates were blocked by adding 300 µl of Reagent Diluent for 1 hour at room temperature. To proceed the ELISA Human pro-collagen I α1 Standards were diluted in Reagent Diluent (range between 31,3 pg/mL - 2000 pg/mL) and 100 µl of standards or conditioned mediums were added to designated wells. Microplates were incubated at room temperature for 2 hours. Human Pro-collagen I α1 Detection Antibody was prepared in Reagent Diluent at […] working concentration and 100 µl of diluted Detection Antibody was applied for 2 hours at room temperature after extensive washing. Then, working solution of Streptavidin-HRP with Reagent Diluent was prepared by diluting 1:40 and added into each well. After 20 minutes at room temperature incubation, microplates were washed and applied with 100 µl of Substrate Solution for 20 minutes followed by Stop Solution after washing. Finally, signals were measured at 450 nm absorbance by PHomo Microplate Reader (Autobio, China) The amount of pro-collagen 1 was quantified by extrapolating the signal into a linear range of a pro-collagen 1 standard curve. Screening compounds were typically tested at concentration of 150 and 250 µg/mL. The dose response data for each compound and the different cell lines were obtained by nonlinear regression analysis using Prism 9 software (GraphPad, La Jolla, USA).

SMILES: c1nn2nnnc2c2cscc12 [Compound 17, Tetrazolo[1,5-b]thieno[3,4-d]pyridazine]
- collagen reduction percentage in comparison to the standard (100 %) ([1]; 48h, 150 µg): 90%
- collagen reduction percentage in comparison to the standard (100 %) ([1]; 48h, 250 µg): 62%
- collagen reduction percentage in comparison to the standard (100 %) ([1]; 72 h, 150 µg): 103%
- collagen reduction percentage in comparison to the standard (100 %) ([1]; 72 h, 250 µg): 55%
- collagen reduction percentage in comparison to the standard (100 %) ([2]; 48h, 150 µg): 102%
- collagen reduction percentage in comparison to the standard (100 %) ([2]; 48h, 250 µg): 86%
- collagen reduction percentage in comparison to the standard (100 %) ([2]; 72 h, 150 µg): 76%
- collagen reduction percentage in comparison to the standard (100 %) ([2]; 72 h, 250 µg): 59%
- collagen reduction percentage in comparison to the standard (100 %) ([3]; 48h): 34%
- collagen reduction percentage in comparison to the standard (100 %) ([3]; 72 h): 4%
- collagen reduction percentage in comparison to the standard (100 %) ([4]; 48h, 150 µg): 33%
- collagen reduction percentage in comparison to the standard (100 %) ([4]; 48h, 250 µg): 16%
- collagen reduction percentage in comparison to the standard (100 %) ([4]; 72 h, 150 µg): 35%
- collagen reduction percentage in comparison to the standard (100 %) ([4]; 72 h, 250 µg): 11%

SMILES: c1ccc2c(c1)cnn1nnnc21 [Compound 1, Tetrazolor5,1-alphthalazine]
- collagen reduction percentage in comparison to the standard (100 %) ([1]; 48h, 150 µg): 127%
- collagen reduction percentage in comparison to the standard (100 %) ([1]; 48h, 250 µg): 77%
- collagen reduction percentage in comparison to the standard (100 %) ([1]; 72 h, 150 µg): 95%
- collagen reduction percentage in comparison to the standard (100 %) ([1]; 72 h, 250 µg): 92%
- collagen reduction percentage in comparison to the standard (100 %) ([2]; 48h, 150 µg): 70%
- collagen reduction percentage in comparison to the standard (100 %) ([2]; 48h, 250 µg): 85%
- collagen reduction percentage in comparison to the standard (100 %) ([2]; 72 h, 150 µg): 74%
- collagen reduction percentage in comparison to the standard (100 %) ([2]; 72 h, 250 µg): 68%
- collagen reduction percentage in comparison to the standard (100 %) ([3]; 48h): 57%
- collagen reduction percentage in comparison to the standard (100 %) ([3]; 72 h): 72%
- collagen reduction percentage in comparison to the standard (100 %) ([4]; 48h, 150 µg): 87%
- collagen reduction percentage in comparison to the standard (100 %) ([4]; 48h, 250 µg): 78%
- collagen reduction percentage in comparison to the standard (100 %) ([4]; 72 h, 150 µg): 74%
- collagen reduction percentage in comparison to the standard (100 %) ([4]; 72 h, 250 µg): 61%

SMILES: Cc1nnc2c3cscc3cnn12 [Compound 16, 3-Methylthieno[3,4-d][1,2,4]triazolo[4,3-b]pyridazine]
- collagen reduction percentage in comparison to the standard (100 %) ([1]; 48h, 150 µg): 79%
- collagen reduction percentage in comparison to the standard (100 %) ([1]; 48h, 250 µg): 62%
- collagen reduction percentage in comparison to the standard (100 %) ([1]; 72 h, 150 µg): 86%
- collagen reduction percentage in comparison to the standard (100 %) ([1]; 72 h, 250 µg): 55%
- collagen reduction percentage in comparison to the standard (100 %) ([2]; 48h, 150 µg): 117%
- collagen reduction percentage in comparison to the standard (100 %) ([2]; 48h, 250 µg): 99%
- collagen reduction percentage in comparison to the standard (100 %) ([2]; 72 h, 150 µg): 82%
- collagen reduction percentage in comparison to the standard (100 %) ([2]; 72 h, 250 µg): 35%
- collagen reduction percentage in comparison to the standard (100 %) ([3]; 48h): 79%
- collagen reduction percentage in comparison to the standard (100 %) ([3]; 72 h): 48%
- collagen reduction percentage in comparison to the standard (100 %) ([4]; 48h, 150 µg): 72%
- collagen reduction percentage in comparison to the standard (100 %) ([4]; 48h, 250 µg): 43%
- collagen reduction percentage in comparison to the standard (100 %) ([4]; 72 h, 150 µg): 82%
- collagen reduction percentage in comparison to the standard (100 %) ([4]; 72 h, 250 µg): 35%

SMILES: [2H]C([2H])([2H])c1nnc2c3ccccc3cnn12 [Compound 7, 3-D3-Methyl-1,2,4-triazolo[3,4-a]phthalazine]
- collagen reduction percentage in comparison to the standard (100 %) ([1]; 48h, 150 µg): 101%
- collagen reduction percentage in comparison to the standard (100 %) ([1]; 48h, 250 µg): 75%
- collagen reduction percentage in comparison to the standard (100 %) ([1]; 72 h, 150 µg): 43%
- collagen reduction percentage in comparison to the standard (100 %) ([1]; 72 h, 250 µg): 30%
- collagen reduction percentage in comparison to the standard (100 %) ([2]; 48h, 150 µg): 79%
- collagen reduction percentage in comparison to the standard (100 %) ([2]; 48h, 250 µg): 54%
- collagen reduction percentage in comparison to the standard (100 %) ([2]; 72 h, 150 µg): 44%
- collagen reduction percentage in comparison to the standard (100 %) ([2]; 72 h, 250 µg): 47%
- collagen reduction percentage in comparison to the standard (100 %) ([3]; 48h): 43%
- collagen reduction percentage in comparison to the standard (100 %) ([3]; 72 h): 33%
- collagen reduction percentage in comparison to the standard (100 %) ([4]; 48h, 150 µg): 19%
- collagen reduction percentage in comparison to the standard (100 %) ([4]; 48h, 250 µg): 9%
- collagen reduction percentage in comparison to the standard (100 %) ([4]; 72 h, 150 µg): 14%
- collagen reduction percentage in comparison to the standard (100 %) ([4]; 72 h, 250 µg): 3%
